From patent publication US20230122249A1, “1H-PYRAZOLO[4,3-d]PYRIMIDINE COMPOUNDS AS TOLL-LIKE RECEPTOR 7 (TLR7) AGONISTS” (BRISTOL-MYERS SQUIBB COMPANY, priority 2020, published 2023)

Legend:
[1] = tested on: CD69 in human whole blood; test: Induction of CD69 in human whole blood (hWB); assay type: cell-based; settings: heparinized human whole blood, 17 h, CD69 surface staining; 100% set to 1 uM resiquimod; average where assay repeated
Protocol: The induction of Type I interferon (IFN) MX-1 genes and the B-cell activation marker CD69 are downstream events that occur upon activation of the TLR7 pathway. The following is a human whole blood assay that measures their induction in response to a TLR7 agonist.
Heparinized human whole blood was harvested from human subjects and treated with test TLR7 agonist compounds at 1 mM. The blood was diluted with RPMI 1640 media and Echo was used to predot 10 nL per well giving a final concentration of 1 uM (10 nL in 10 uL of blood). After mixing on a shaker for 30 sec, the plates were covered and placed in a 37° C. chamber for o/n=17 hrs. Fixing/lysis buffer was prepared (5×->1×in H2O, warm at 37° C.; Cat# BD 558049) and kept the perm buffer (on ice) for later use.
For surface markers staining (CD69): prepared surface Abs: 0.045 ul hCD14-FITC (ThermoFisher Cat # MHCD1401)+0.6 ul hCD19-ef450 (ThermoFisher Cat #48-0198-42)+1.5 ul hCD69-PE (cat# BD555531)+0.855 ul FACS buffer. Added 3 ul/well, spin1000 rpm for 1 min and mixed on shaker for 30 sec, put on ice for 30 mins. Stop stimulation after 30 minutes with 70 uL of prewarmed 1×fix/lysis buffer and use Feliex mate to resuspend (15 times, change tips for each plate) and incubate at 37° C. for 10 minutes.
Centrifuge at 2000 rpm for 5 minutes aspirate with HCS plate washer, mix on shaker for 30 sec and then wash with 70 uL in dPBS and pelleted 2 xs (2000 rpm for 5 min) and 50 ul wash in FACS buffer pelleted 1 xs(2000 rpm for 5 min). Mix on shaker for 30 sec. For Intracellular markers staining (MX-1): Add 50 ul of BD Perm buffer III and mix on shaker for 30 sec. Incubate on ice for 30 minutes (in the dark). Wash with 50 uL of FACS buffer 2×(spin @2300 rpm×5 min after perm) followed by mixing on shaker for 30 sec. Resuspended in 20 ul of FACS buffer containing MX1 antibody ( )(4812)-Alexa 647: Novus Biologicals #NBP2-43704AF647) 20 ul FACS bf+0.8 ul hlgG+0.04 ul MX-1. Spin 1000 rpm for 1 min, mix on shaker for 30 se and the samples were incubated at RT in the dark for 45 minutes followed by washing 2×FACS buffer (spin @2300 rpm×5 min after perm). Resuspend 20 ul (35 uL total per well) of FACS buffer and cover with foil and place in 4° C. to read the following day. Plates were read on iQuePlus. The results were loaded into toolset and […] curves are generated in curve master. The y-axis 100% is set to 1 uM of resiquimod.

[2] = biological target: T1, human TLR7 (Homo sapiens, UniProt Q9NYK1); test: Human TLR7 agonist activity (hTLR7 reporter) assay in HEK-Blue TLR7 cells, SEAP readout; assay type: cell-based; settings: 18 h treatment, average where assay repeated
T1 construct: host or cells: HEK-Blue TLR7 cells (engineered human embryonic kidney cells)
T1 sequence (Q9NYK1 27-1049): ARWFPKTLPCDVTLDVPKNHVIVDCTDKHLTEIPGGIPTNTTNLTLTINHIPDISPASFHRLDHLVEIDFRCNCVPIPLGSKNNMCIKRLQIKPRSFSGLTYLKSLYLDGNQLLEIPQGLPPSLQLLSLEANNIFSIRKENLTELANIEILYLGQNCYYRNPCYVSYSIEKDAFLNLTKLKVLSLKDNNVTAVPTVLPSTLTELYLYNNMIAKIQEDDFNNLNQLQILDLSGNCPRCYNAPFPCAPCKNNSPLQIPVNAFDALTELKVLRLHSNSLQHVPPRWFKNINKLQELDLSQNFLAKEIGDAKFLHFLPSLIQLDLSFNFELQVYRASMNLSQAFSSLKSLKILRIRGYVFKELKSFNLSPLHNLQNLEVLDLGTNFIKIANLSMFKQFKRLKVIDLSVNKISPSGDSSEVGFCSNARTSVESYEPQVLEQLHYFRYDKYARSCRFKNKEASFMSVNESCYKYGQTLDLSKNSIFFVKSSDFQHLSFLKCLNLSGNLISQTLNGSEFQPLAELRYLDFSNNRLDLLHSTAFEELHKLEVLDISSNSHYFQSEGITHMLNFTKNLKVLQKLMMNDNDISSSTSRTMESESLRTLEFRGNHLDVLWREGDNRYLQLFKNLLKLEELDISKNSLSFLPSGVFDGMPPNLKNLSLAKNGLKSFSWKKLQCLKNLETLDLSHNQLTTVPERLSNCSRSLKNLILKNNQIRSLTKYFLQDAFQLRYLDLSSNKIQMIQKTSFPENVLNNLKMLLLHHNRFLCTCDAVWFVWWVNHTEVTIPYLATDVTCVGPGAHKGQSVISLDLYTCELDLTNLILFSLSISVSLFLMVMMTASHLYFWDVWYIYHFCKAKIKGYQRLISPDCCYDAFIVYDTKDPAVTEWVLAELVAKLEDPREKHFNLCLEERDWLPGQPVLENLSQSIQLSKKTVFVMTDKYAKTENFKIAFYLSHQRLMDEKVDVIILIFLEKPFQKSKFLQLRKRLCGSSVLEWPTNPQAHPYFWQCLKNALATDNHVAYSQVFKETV
Protocol: This procedure describes a method for assaying human TLR7 (hTLR7) agonist activity of the compounds disclosed in this specification.
HEK-Blue™ TLR7 cells were added to each well of a 384-well tissue-culture plate (15,000 cells per well) and incubated 16-18 h at 37° C., 5% CO2. Compounds (100 nl) were dispensed into wells containing the HEK-Blue™ TLR cells and the treated cells were incubated at 37° C., 5% CO2. After 18 h treatment ten microliters of freshly-prepared Quanti-Blue™ reagent (Invivogen) was added to each well, incubated for 30 min (37° C., 5% CO2) and SEAP levels measured using an Envision plate reader (OD=620 nm). The half maximal effective concentration values (EC50; compound concentration which induced a response halfway between the assay baseline and maximum) were calculated.

SMILES | EC50 [1] [µM] | EC50 [2] [µM]
COc1cc(C(=O)N2CC3(CNC3)C2)ccc1Cn1ncc2nc(N)nc(NCC3CC4(CCC4)C3)c21 [Compound 180] | 0.363 | 0.728
COc1cc(C(=O)N2C[C@@H]3C[C@H]2CN3)ccc1Cn1ncc2nc(N)nc(NCC3CC4(CCC4)C3)c21 [Compound 181] | 0.11 | 0.254
COc1cc(C(=O)N2C[C@H]3CNC[C@H]3C2)ccc1Cn1ncc2nc(N)nc(NCC3CC4(CCC4)C3)c21 [Compound 182] | 0.202 | 0.394
COc1cc(CN2CCN(CCO)CC2)ccc1Cn1ncc2nc(N)nc(NCC3CC4(CC4)C3)c21 [Compound 183] | 0.0485 | 0.0315
COc1cc(CN2CCN(CCO)CC2)ccc1Cn1ncc2nc(N)nc(NCC3CC4(C3)CC(F)(F)C4)c21 [Compound 185] | 0.117 | 0.482
COc1cc(CN(C)C)ccc1Cn1ncc2nc(N)nc(NCC3CC4(C3)CC(F)(F)C4)c21 [Compound 186] | 0.783 | 0.95
COc1cc(C(=O)N2CC3(CN(C)C3)C2)ccc1Cn1ncc2nc(N)nc(NCC3CC4(C3)CC(F)(F)C4)c21 [Compound 187] | 0.419 | 2.31
COc1cc(C(=O)N2C[C@H]3CN(C)C[C@H]3C2)ccc1Cn1ncc2nc(N)nc(NCC3CC4(C3)CC(F)(F)C4)c21 [Compound 188] | 0.493 | 0.81
COc1cc(C(=O)NC2CCN(C3CC3)CC2)ccc1Cn1ncc2nc(N)nc(NCC3CC4(CC4)C3)c21 [Compound 195] | 0.411 | 0.193
CCCN1CCC(NC(=O)c2ccc(Cn3ncc4nc(N)nc(NCC5CC6(CC6)C5)c43)c(OC)c2)CC1 [Compound 197] | 0.0355 | 0.0326
COc1cc(C(=O)NC2CC3(C2)CN(C)C3)ccc1Cn1ncc2nc(N)nc(NCC3CC4(CC4)C3)c21 (stereo not shown) [Compound 201] | 0.206 | 0.842
COc1cc(C(=O)NC2CN(C)C2)ccc1Cn1ncc2nc(N)nc(NCC3CC4(CCC4)C3)c21 [Compound 205] | 0.314 | 0.328
COc1cc(C(=O)NC2CCN(C)CC2)ccc1Cn1nc(C)c2nc(N)nc(NCC3CC4(CC4)C3)c21 [Compound 207] | 0.0933 | 0.325
COc1cc(C(=O)N2C[C@H]3C[C@@H]2CN3C)ccc1Cn1nc(C)c2nc(N)nc(NCC3CC4(CC4)C3)c21 [Compound 208] | 0.0458 | 0.119
COc1cc(CN2CC3(CN(C)C3)C2)ccc1Cn1ncc2nc(N)nc(NCc3cc(C)on3)c21 [Compound 211] | 0.0337 | 0.64
COc1cc(CN2CC3(C2)CN(C(C)C)C3)ccc1Cn1ncc2nc(N)nc(NCc3cc(C)on3)c21 [Compound 213] | 0.0023 | 0.0534
COc1cc(C(=O)N2CC3(CN(C)C3)C2)ccc1Cn1ncc2nc(N)nc(NCc3cc(C)on3)c21 [Compound 214] | 0.0109 | 0.0676
CCC[C@@H](CCO)Nc1nc(N)nc2cnn(Cc3ccc(CN4CC5(CN(C)C5)C4)cc3OC)c12 [Compound 215] | 0.104 | 0.372
COc1cc(C(=O)N2C[C@H]3CN(C)C[C@H]3C2)ccc1Cn1nc(C)c2nc(N)nc(NCC3CC4(CC4)C3)c21 [Compound 217] | 0.0108 | 0.115
CN1C[C@@H]2CN(C(=O)c3ccc(Cn4ncc5nc(N)nc(NCC6CC7(CC7)C6)c54)c(OC(F)F)c3)C[C@@H]2C1 [Compound 218] | 0.035 | 0.125
CN1CCC(NC(=O)c2ccc(Cn3ncc4nc(N)nc(NCC5CC6(CC6)C5)c43)c(OC(F)F)c2)CC1 [Compound 220] | 0.117 | 1.24

The next lines start with the values.

EC50 [1] [µM] | EC50 [2] [µM] | SMILES
0.156 | 0.365 | COc1cc(C(=O)N2C[C@@H]3C[C@H]2CN3)ccc1Cn1ncc2nc(N)nc(NCC3CC4(CC4)C3)c21 [Compound 178]
0.0131 | 0.0365 | COc1cc(C(=O)N2C[C@@H]3C[C@H]2CN3C)ccc1Cn1ncc2nc(N)nc(NCC3CC4(CC4)C3)c21 [Compound 179]
0.11 | 0.0675 | COc1cc(C(=O)N2CCN(CCO)CC2)ccc1Cn1ncc2nc(N)nc(NCC3CC4(CC4)C3)c21 [Compound 184]
1 | 0.78 | COc1cc(C(=O)N2C[C@H]3C[C@@H]2CN3C)ccc1Cn1ncc2nc(N)nc(NCC3CC4(C3)CC(F)(F)C4)c21 [Compound 189]
0.169 | 0.315 | COc1cc(C(=O)NC2CN(C)C2)ccc1Cn1ncc2nc(N)nc(NCC3CC4(CC4)C3)c21 [Compound 190]
0.0219 | 0.0473 | COc1cc(C(=O)N[C@H]2CCN(C)C2)ccc1Cn1ncc2nc(N)nc(NCC3CC4(CC4)C3)c21 [Compound 192]
0.0152 | 0.0481 | COc1cc(C(=O)N[C@@H]2CCN(C)C2)ccc1Cn1ncc2nc(N)nc(NCC3CC4(CC4)C3)c21 [Compound 193]
0.101 | 0.104 | COc1cc(C(=O)NC2CCN(C(C)C)CC2)ccc1Cn1ncc2nc(N)nc(NCC3CC4(CC4)C3)c21 [Compound 194]
0.0606 | 0.0903 | COc1cc(C(=O)NC2CCN(C)CC2)ccc1Cn1ncc2nc(N)nc(NCC3CC4(CC4)C3)c21 [Compound 198]
0.13 | 0.124 | COc1cc(C(=O)N2CC3(CN(C)C3)C2)ccc1Cn1ncc2nc(N)nc(NCC3CC4(CCC4)C3)c21 [Compound 200]
0.0363 | 0.0933 | CCC[C@@H](CCO)Nc1nc(N)nc2cnn(Cc3ccc(C(=O)N4CC5(CN(C)C5)C4)cc3OC)c12 [Compound 206]
0.195 | 0.242 | CCC[C@@H](CCO)Nc1nc(N)nc2cnn(Cc3ccc(C(=O)N4CC5(CNC5)C4)cc3OC)c12 [Compound 209]
0.0013 | 0.0073 | CCC[C@@H](CCO)Nc1nc(N)nc2cnn(Cc3ccc(CN4CC5(C4)CN(C(C)C)C5)cc3OC)c12 [Compound 216]
0.0377 | 0.188 | CN1C[C@H]2C[C@@H]1CN2C(=O)c1ccc(Cn2ncc3nc(N)nc(NCC4CC5(CC5)C4)c32)c(OC(F)F)c1 [Compound 219]
